# In ChEMBL document CHEMBL1201862, “PubChem BioAssay data set” (2004):
# Structures can show the parent of a compound that is named as a salt. Active and inactive are the calls of the source.
# How the values were obtained:
# [1] = test system: HEK293; assay: cells; format: functional, cell-based; settings: Homo sapiens
# [2] = target: Nucleotide-binding oligomerization domain-containing protein 2 (Homo sapiens, UniProt Q9HC29); assay: inhibition of NOD2-driven NF-kB reporter – cell-based, luminescence, uHTS, HEK293 (AID 1566); format: functional
# [3] = test system: HEK293; assay: NOD2 signaling inhibitors in MDP-stimulated cells, cell-based, uHTS, luminescence (AID 2001); format: functional; settings: Homo sapiens
# [4] = target: T1, Microphthalmia-associated transcription factor (Homo sapiens, UniProt O75030); assay: reducers of TRPM1 reporter luminescence, concentration series – cell-based, SK-MEL-5, cherry-picked, set 3, MITF inhibitor project, dose response (AID 493073); format: functional;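 also: SK-MEL-5 melanoma cells with luciferase driven by the MITF target TRPM1 promoter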
# T1 sequence (O75030 whole entry): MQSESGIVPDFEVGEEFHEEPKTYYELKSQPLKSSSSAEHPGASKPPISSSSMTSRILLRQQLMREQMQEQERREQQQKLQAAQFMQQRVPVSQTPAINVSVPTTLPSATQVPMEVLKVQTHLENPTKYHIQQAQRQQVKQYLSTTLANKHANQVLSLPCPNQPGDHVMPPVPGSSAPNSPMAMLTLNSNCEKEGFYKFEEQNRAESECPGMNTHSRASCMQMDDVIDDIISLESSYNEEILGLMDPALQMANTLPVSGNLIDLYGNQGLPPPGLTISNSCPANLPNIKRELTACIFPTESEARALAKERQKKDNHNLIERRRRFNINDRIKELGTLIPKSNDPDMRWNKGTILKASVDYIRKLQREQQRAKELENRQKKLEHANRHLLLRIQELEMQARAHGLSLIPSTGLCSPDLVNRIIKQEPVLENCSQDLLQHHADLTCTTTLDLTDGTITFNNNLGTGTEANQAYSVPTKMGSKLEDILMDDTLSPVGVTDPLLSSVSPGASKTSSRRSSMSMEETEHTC
# [5] = target: T2, Heat shock factor protein 1 (Mus musculus, UniProt P38532); assay: decrease of HSF1-responsive luciferase luminescence – cell-based, NIH3T3, dose retest, confirmation (AID 2382); format: functional;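 also: NIH3T3 fibroblasts with HSF1-driven luciferase reporter stressed by proteasome inhibitor MG132; luminescence from HSF1-driven luciferase expression after 8 hours of MG132 stress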
# T2 sequence (P38532 whole entry): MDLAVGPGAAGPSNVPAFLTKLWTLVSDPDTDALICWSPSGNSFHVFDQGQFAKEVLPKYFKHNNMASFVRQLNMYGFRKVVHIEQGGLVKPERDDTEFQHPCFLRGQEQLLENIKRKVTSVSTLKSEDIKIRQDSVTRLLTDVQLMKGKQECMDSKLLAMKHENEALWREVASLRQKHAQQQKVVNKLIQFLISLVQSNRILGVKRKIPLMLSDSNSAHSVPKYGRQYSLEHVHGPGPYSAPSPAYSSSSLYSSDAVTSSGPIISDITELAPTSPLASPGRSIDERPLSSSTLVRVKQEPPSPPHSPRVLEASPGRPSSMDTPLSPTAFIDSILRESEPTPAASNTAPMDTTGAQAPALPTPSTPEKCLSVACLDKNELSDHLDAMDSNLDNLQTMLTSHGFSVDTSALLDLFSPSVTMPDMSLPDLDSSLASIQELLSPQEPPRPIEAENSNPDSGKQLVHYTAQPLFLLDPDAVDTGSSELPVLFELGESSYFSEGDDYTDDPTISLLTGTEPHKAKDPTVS
# [6] = test system: HEK293; assay: inhibition of NOD1-driven NF-kB reporter – cell-based, luminescence, uHTS, primary screen (AID 1578); format: functional; settings: Homo sapiens
# [7] = test system: HEK293; assay: cells; format: functional, cell-based; settings: Homo sapiens; remark: listed apart in the source
# [8] = test system: HEK293; assay: cells; format: functional, cell-based; settings: Homo sapiens; remark: listed apart in the source
# [9] = test system: Vero; assay: viability of Vero cells under compound – cytotoxicity control for flavivirus capping enzyme inhibitors (AID 588742); format: functional; settings: Chlorocebus sabaeus
# [10] = target: Genome polyprotein (dengue virus type 2, UniProt P29990); assay: flavivirus cap methylation enzyme inhibition – biochemical, confirmation dose response, primary screen (AID 588689); format: functional
# Chain of Genome polyprotein (P29990 2492-3391 limits assumed): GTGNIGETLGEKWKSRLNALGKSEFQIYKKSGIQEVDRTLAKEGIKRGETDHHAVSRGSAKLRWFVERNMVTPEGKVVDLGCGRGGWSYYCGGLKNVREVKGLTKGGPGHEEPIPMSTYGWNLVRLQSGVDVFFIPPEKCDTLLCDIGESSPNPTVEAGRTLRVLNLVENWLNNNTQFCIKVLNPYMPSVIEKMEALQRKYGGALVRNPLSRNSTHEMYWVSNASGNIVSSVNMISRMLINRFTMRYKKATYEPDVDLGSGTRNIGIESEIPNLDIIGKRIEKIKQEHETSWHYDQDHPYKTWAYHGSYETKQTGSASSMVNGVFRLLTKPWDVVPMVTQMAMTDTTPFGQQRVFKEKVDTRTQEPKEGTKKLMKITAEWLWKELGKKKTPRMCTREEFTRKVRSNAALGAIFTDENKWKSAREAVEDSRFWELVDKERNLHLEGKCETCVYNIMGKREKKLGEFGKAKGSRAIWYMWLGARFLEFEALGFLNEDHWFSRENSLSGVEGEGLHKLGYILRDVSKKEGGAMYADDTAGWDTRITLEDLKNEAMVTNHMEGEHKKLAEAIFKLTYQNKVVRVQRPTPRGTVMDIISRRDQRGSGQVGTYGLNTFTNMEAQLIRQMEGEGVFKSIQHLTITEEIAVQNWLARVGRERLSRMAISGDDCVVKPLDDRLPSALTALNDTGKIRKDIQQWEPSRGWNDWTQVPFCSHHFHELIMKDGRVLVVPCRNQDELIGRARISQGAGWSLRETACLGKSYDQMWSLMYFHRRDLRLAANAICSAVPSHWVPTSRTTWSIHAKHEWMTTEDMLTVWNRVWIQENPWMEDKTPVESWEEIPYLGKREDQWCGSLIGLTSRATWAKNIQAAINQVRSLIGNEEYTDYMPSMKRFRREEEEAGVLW
# [11] = target: Glucose-6-phosphate 1-dehydrogenase (Homo sapiens, UniProt P11413); assay: inhibition of Homo sapiens G6PD, dose series – biochemical, fluorescence, selectivity assay for P. falciparum G6PD inhibitor project, dose response (AID 504792); format: functional
# Chain of Glucose-6-phosphate 1-dehydrogenase (P11413 whole entry): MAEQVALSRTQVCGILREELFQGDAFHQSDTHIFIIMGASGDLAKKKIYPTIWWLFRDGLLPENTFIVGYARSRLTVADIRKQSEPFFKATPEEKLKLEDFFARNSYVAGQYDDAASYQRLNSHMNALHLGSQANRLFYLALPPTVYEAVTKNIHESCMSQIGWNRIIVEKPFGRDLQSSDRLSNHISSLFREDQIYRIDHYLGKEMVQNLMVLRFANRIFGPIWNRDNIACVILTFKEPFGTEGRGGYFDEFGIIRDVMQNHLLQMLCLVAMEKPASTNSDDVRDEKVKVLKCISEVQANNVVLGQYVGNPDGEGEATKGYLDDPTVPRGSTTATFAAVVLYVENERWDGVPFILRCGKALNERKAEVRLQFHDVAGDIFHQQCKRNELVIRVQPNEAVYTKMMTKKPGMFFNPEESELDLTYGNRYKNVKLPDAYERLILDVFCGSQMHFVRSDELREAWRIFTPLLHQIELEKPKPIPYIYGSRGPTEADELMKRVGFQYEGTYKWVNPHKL
# [12] = target: CAAX prenyl protease 2 (Homo sapiens, UniProt Q9Y256); assay: inhibition of Ras-converting CAAX protease Rce1 – biochemical, yeast membranes, quenched-peptide fluorescence, cherry-pick, dose response (AID 588849)
# [13] = target: Trypsin (Sus scrofa, UniProt P00761); assay: trypsin protease activity blockade – biochemical, quenched peptide fluorescence, cherry-pick, selectivity assay for Rce1 protease inhibitor project, dose response (AID 488789)
# Chain of Trypsin (P00761 whole entry): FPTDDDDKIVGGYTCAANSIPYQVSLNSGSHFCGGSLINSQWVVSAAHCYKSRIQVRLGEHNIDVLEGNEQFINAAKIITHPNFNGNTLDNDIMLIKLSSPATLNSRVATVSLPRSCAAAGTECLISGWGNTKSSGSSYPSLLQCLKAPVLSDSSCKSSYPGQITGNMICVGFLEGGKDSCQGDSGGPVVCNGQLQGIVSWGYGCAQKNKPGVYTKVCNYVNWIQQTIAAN
# [14] = target: CAAX prenyl protease 2 (Saccharomyces cerevisiae S288c, UniProt Q03530); format: biochemical
# Chain of CAAX prenyl protease 2 (Saccharomyces cerevisiae S288c, UniProt Q03530) (Q03530 whole entry): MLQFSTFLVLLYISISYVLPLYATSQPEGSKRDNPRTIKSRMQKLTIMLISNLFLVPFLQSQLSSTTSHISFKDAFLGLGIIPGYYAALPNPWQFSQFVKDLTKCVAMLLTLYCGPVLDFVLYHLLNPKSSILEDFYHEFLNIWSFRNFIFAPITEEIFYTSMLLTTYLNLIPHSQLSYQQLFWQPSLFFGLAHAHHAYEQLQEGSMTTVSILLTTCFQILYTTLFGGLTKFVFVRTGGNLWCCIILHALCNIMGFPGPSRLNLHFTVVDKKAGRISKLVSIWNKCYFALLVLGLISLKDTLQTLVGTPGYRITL
# [15] = target: T3, Serine/threonine-protein phosphatase (Candida dubliniensis (strain CD36 / CBS 7987 / NCPF 3949 / NRRLY-17841) (Yeast), UniProt B9W6M3); assay: Fluorescence Cell-Based Secondary Assay to Identify Inhibitors of Calcineurin. [Related pubchem assays (depositor defined):AID1979, AID2007]; format: functional
# T3 sequence (B9W6M3 whole entry): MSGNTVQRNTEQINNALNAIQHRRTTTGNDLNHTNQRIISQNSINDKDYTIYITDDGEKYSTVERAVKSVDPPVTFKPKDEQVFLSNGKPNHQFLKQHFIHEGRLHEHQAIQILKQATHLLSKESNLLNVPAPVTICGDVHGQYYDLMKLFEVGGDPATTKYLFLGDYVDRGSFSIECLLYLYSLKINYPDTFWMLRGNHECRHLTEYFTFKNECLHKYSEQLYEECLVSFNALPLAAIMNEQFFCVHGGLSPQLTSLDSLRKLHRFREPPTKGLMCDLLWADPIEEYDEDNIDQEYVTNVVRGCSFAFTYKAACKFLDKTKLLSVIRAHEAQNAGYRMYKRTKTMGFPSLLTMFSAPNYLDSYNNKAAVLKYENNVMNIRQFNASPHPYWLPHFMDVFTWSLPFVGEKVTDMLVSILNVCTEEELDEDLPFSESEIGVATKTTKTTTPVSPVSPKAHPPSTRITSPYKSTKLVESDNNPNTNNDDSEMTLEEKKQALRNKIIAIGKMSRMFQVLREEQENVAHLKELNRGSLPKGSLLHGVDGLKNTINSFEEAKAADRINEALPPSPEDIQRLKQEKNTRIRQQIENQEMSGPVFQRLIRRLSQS
# [16] = target: Nuclear receptor subfamily 0 group B member 1 (Homo sapiens, UniProt P51843); assay: Luminescence-based cell-based high throughput dose response assay for inhibitors of the orphan nuclear receptor subfamily 0, group B, member 1 (DAX1; NR0B1). [Related pubchem assays (depositor defined):AID504766, AID504790]; format: functional
# Chain of Nuclear receptor subfamily 0 group B member 1 (P51843 whole entry): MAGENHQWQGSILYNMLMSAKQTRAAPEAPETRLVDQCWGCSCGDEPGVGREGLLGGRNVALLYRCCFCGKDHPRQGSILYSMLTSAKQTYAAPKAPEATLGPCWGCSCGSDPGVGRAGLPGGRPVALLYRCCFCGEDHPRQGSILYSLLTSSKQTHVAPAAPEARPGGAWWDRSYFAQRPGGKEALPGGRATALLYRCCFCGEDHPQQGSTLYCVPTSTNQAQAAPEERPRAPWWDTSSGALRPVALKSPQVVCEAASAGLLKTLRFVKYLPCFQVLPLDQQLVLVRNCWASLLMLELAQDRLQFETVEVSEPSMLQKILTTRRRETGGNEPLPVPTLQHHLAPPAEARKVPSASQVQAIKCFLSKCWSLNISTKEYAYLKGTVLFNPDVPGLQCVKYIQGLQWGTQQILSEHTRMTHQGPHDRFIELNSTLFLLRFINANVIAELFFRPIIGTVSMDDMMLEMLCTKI
# [17] = test system: HEK293; assay: cells; format: functional, cell-based; settings: Homo sapiens; remark: listed apart in the source
# [18] = target: Dual specificity protein kinase CLK1 (Homo sapiens, UniProt P49759); assay: inhibition of human CLK1 activity – biochemical, cherry-picked samples, selectivity assay for Dyrk1A inhibitor project, dose response (AID 588811)
# [19] = restored growth of temperature-sensitive Burl-1 yeast – whole organism, S. cerevisiae, Burl-1 ts mutant, luminescence, counter-screen for SUMOylation pathway inhibitor project, dose response (AID 463199); format: functional
# [20] = target: FAD-linked sulfhydryl oxidase ALR (Homo sapiens, UniProt P55789); assay: ALR-catalysed DTT oxidation blockers – biochemical, H2O2 detection, luminescence, cherry-pick, dose response (AID 493248)
# Chain of FAD-linked sulfhydryl oxidase ALR (P55789 whole entry): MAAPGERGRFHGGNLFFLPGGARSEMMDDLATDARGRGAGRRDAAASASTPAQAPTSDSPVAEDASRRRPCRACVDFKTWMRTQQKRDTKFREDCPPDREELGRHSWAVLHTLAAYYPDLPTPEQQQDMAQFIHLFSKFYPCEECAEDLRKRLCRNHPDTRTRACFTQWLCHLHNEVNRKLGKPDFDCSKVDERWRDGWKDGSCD
# [21] = target: Dual specificity protein phosphatase 6 (Rattus norvegicus, UniProt Q64346); format: functional;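 also: confirmatory in vitro dose-response testing of MKP-3 inhibition; recombinant His-tagged MKP-3 made in E. coli BL21 with OMFP substrate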
# Chain of Dual specificity protein phosphatase 6 (Q64346 whole entry): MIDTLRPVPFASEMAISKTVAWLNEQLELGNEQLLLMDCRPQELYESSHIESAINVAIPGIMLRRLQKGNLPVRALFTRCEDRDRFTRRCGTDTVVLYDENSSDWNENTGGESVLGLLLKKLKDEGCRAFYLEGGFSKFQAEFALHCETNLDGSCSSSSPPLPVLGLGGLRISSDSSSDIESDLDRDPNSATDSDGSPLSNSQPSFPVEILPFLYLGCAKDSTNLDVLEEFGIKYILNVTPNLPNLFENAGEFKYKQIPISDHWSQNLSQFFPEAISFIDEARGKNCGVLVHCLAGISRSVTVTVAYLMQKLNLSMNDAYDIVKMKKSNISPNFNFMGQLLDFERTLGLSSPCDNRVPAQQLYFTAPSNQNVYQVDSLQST
# [22] = target: Tyrosine-protein phosphatase non-receptor type 7 (Homo sapiens, UniProt P35236); assay: redox-active compounds inhibiting HePTP phosphatase – biochemical, fluorescence, mechanism study (AID 2068); format: functional
# Chain of Tyrosine-protein phosphatase non-receptor type 7 (P35236 whole entry): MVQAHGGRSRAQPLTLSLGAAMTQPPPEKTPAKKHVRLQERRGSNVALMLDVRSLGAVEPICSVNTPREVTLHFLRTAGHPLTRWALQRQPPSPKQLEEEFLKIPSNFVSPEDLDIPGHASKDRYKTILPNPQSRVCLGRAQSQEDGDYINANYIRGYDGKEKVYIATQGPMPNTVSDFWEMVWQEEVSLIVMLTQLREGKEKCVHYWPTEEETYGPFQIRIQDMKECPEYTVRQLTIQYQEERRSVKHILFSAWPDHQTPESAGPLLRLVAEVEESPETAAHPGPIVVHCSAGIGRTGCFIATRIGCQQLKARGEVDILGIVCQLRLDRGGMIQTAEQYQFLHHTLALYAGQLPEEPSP
# [23] = target: UDP-galactopyranose mutase (Mycobacterium tuberculosis, UniProt P9WIQ1); assay: Inhibitors of Mycobacterium tuberculosis UDP-galactopyranose mutase (UGM) enzyme Measured in Biochemical System Using Plate Reader - 2105-02_Inhibitor_Dose_CherryPick_Activity. [Related pubchem assays (depositor defined):AID504439]
# Chain of UDP-galactopyranose mutase (P9WIQ1 whole entry): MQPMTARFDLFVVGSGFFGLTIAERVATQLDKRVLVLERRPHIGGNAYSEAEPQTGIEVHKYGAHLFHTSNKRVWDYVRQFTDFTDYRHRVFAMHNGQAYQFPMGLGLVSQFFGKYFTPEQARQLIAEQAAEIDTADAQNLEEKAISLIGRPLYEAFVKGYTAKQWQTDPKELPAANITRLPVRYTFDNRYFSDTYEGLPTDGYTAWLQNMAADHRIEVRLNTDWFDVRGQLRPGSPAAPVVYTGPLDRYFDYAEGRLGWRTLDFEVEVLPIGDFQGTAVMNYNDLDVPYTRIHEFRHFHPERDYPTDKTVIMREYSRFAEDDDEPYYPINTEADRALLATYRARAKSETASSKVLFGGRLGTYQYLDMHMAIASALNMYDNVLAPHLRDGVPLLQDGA
# [24] = fluconazole-exposed Candida albicans growth modulators – fluorescence, retest, confirmation (AID 2467); format: functional, cell-based
# [25] = NIH-3T3 fibroblast cytotoxicity, dose response, cytotoxicity control, cell-based, fluorescence, Alamar Blue, secondary assay (AID 2327); format: functional;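 also: NIH-3T3 mouse fibroblasts cultured with fluconazole at 8 µg/mL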
# [26] = viability of HCT116 lacking mutant beta-catenin – cell-based, human colon tumor, dose response (AID 1045); format: functional;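 also: HCT116 colon tumor cells with beta catenin knocked out; cells exposed to compound for 60 hours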
# [27] = viability of PTEN-deleted HCT116 cells – cell-based, HCT116 PTEN knockout, dose response (AID 1047); format: functional;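 also: HCT116 colon tumor cells with PTEN knocked out; cells exposed to compound for 60 hours before readout; potency for loss of cell viability measured by luminescence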
# [28] = test system: A-375; assay: MITF: Counter assay: A375 proliferation Measured in Cell-Based System Using Plate Reader - 2084-03_Inhibitor_Dose_DryPowder_Activity. [Related pubchem assays (depositor defined):AID488944]; format: functional; settings: Homo sapiens
# [29] = target: T4, Corticotropin-releasing factor receptor 2/Corticotropin-releasing factor-binding protein (Homo sapiens, UniProt P24387+Q13324); assay: activators of CRF receptor 2 with binding protein – uHTS hits, confirmation (AID 602473); format: functional; settings: read-out: EC50_Mean
# T4 sequence (Q13324 whole entry): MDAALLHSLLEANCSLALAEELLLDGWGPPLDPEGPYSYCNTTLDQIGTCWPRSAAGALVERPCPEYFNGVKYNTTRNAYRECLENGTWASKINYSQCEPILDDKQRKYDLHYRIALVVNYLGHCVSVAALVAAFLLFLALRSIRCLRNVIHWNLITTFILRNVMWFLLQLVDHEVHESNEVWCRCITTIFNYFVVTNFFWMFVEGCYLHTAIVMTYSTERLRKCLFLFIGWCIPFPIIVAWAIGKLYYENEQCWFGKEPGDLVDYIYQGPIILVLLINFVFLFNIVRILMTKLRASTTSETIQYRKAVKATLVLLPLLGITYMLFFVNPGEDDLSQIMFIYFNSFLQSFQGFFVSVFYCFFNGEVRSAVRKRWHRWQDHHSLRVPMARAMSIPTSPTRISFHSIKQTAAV
# T4 sequence (P24387 whole entry): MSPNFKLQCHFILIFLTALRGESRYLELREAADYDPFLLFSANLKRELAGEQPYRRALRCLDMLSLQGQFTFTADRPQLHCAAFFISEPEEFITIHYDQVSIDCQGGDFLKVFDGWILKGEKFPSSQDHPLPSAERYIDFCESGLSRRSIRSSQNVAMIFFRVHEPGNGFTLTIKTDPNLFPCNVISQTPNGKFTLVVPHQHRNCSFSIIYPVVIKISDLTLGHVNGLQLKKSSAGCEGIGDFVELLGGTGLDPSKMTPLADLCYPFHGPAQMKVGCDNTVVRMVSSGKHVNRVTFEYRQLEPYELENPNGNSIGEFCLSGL
# [30] = target: Voltage-gated inwardly rectifying potassium channel KCNH2 (Homo sapiens, UniProt Q12809); settings: Potency;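 also: confirmatory quantitative high-throughput screen measuring inhibition of hERG channel activity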
# Chain of Voltage-gated inwardly rectifying potassium channel KCNH2 (Q12809 whole entry): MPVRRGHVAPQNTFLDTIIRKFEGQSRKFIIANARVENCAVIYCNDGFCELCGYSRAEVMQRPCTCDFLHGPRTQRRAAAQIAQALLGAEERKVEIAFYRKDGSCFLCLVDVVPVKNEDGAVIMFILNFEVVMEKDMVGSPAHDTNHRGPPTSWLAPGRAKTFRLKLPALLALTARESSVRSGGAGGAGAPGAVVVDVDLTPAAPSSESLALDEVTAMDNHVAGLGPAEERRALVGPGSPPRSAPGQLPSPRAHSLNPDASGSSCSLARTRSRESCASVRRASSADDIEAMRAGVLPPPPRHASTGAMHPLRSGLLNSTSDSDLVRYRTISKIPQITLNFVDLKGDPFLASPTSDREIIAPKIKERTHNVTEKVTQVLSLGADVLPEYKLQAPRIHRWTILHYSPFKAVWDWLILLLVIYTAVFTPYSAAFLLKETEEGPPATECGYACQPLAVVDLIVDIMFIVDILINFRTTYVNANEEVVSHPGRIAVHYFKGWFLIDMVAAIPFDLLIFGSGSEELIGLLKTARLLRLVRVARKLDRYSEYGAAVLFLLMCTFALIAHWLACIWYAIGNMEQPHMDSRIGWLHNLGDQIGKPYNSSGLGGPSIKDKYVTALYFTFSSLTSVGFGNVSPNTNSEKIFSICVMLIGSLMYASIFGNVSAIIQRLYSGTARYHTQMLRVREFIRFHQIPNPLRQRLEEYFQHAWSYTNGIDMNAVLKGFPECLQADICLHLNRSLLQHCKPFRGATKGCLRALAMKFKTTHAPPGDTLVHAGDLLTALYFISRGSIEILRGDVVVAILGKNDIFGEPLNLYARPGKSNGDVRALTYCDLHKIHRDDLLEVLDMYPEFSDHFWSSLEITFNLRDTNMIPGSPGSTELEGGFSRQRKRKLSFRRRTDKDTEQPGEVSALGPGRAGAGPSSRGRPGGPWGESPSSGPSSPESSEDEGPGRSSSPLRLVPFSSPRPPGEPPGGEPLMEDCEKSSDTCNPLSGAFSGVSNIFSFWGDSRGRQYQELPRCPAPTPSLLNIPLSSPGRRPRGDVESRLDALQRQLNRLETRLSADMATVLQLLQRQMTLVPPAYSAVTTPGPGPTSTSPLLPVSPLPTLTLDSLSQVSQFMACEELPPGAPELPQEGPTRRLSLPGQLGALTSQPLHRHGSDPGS
# [31] = target: T4, Corticotropin-releasing factor receptor 2/Corticotropin-releasing factor-binding protein; assay: Dose Response confirmation of uHTS hits for small molecule antagonists of the CRF-binding protein and CRF-R2 receptor complex.; format: functional; settings: read-out: IC50_Mean
smiles,measurement,setting,value
O=C(CCl)Nc1ccc(Sc2ccc(NC(=O)CCl)cc2)cc1,IC50,[1],1.62 µM (active)
same,EC50,[2],18.8 µM (active)
same,IC50,[3],2.71 µM (active)
same,AC50,[4],5.98 µM (active)
same,EC50,[5],3.68 µM (active)
same,EC50,[6],10.1 µM (active)
same,IC50,[7],10.2 µM (active)
same,IC50,[8],> 20 µM (inactive)
COc1cc(CN2CCCC(C(=O)c3ccc4c5c(cccc35)CC4)C2)cc(OC)c1O (stereo unspecified),CC50,[9],> 40 µM (active)
same,IC50,[10],97.7 µM (active)
same,IC50,[11],24.3 µM (inactive)
COC(=O)C1=CNC=C(C(=O)OC)C1c1cccc2ccccc12,AC50,[12],7.98 µM (active)
same,AC50,[13],80.3 µM (active)
same,AC50,[14],26.9 µM (active)
O=C1/C(=C\c2ccccc2)CCc2c1[nH]c1ccccc21,EC50,[15],> 285 µM (inactive)
FC(F)(F)c1nnc2ccc(NCc3cccnc3)nn12,IC50,[16],> 67.5 µM (inactive)
same,IC50,[17],50.4 µM (inactive)
CCN(Cc1cccs1)c1ncnc2ccc(-c3ccc4c(c3)OCO4)cc12,AC50,[18],< 0.00195 µM (active)
O=C(O)CCc1ccc(-c2cccs2)n1NC(=O)c1cccs1,AC50,[19],183 µM (active)
same,AC50,[20],1.55 µM (active)
CCN(CC)C(=S)c1ccc(O)c(OC)c1,IC50,[21],> 100 µM (inactive)
same,IC50,[22],4.42 µM (active)
O=C(NCC1CCCO1)c1cccc2c1C(=O)c1ccc(N3CCC(Cc4ccccc4)CC3)cc1S2(=O)=O (stereo unspecified),AC50,[23],52.6 µM (active)
CCOc1cc(/C=N/N=C(N)N)ccc1OCc1ccc(Cl)cc1,EC50,[24],> 38 µM (not active)
same,EC50,[25],81.2 µM (active)
same,EC50,[26],3.01 µM (active)
same,EC50,[27],3.92 µM (active)
same,AC50,[28],18 µM (active)
c1ccc(C2CN3CCSC3=N2)cc1 (stereo unspecified) [TETRAMISOLE HYDROCHLORIDE],EC50,[29],> 53 µM (inactive)
same,AC50,[30],35.5 µM (inconclusive)
same,IC50,[31],> 47.1 µM (inactive)
